How the values were obtained:
Format in all cases: physicochemical
[1] = Dynamic vapor sorption of Compound I crystalline Form I
Excerpt: (§1) Other benefits that crystalline Form I offers include but are not limited to purification and isolation of the crystalline form with respect to the solution and facilitation of storage and handling during the formulation development and manufacturing of drug product.

[2] = Form stability on extended exposure to water (water slurry, XRPD); details: slurried in water, 2 week sample, XRPD (FIG. 6)
Experimental: Approximately 15-50 mg of Compound I are weighed and transferred to each of fifteen vials each equipped with a mini magnetic stir bar. The starting material used for this experiment is an amorphous solid based on the X-ray powder diffraction (XRPD) pattern (See FIG. 1). To each vial is added 1 mL of various solvents. The slurries are allowed to stir for two weeks at room temperature (˜22° C.). XRPD characterization of the excess solids were performed at ˜1 week and ˜2 week time points. A sample of 300 μL of the suspension is removed from each vial, transferred to a centrifuge filter (Costar, 0.45 micron) and centrifuged at 1000 rpm for 2 minutes. Solids in the wet cake form are analyzed using XRPD analysis (PANalytical X'Pert PRO X-ray powder diffractometer). This diffractometer uses Cu-Ka radiation and it operates under reflection mode. Scan range is from 2 to 40 degree 2 theta. After air drying the small sample, (XRPD) analysis is performed again to monitor any change in the diffraction pattern between the wet and dry material. TGA is run on the saturated solution to determine the solubility of the equilibrating solids in the solvent. […]

[3] = Moisture uptake of Compound I amorphous material at room temperature under controlled relative humidity
Excerpt: as §1

**Q.** Which results are given for `CCOP(=O)(COc1ccc(CC(NC(=O)OC2CO[C@H]3OCC[C@@H]23)[C@H](O)CN(CC(C)C)S(=O)(=O)c2ccc(OC)cc2)cc1)OCC` (stereo partly drawn) [Form I]?
**A.** hygroscopicity [1]: not hygroscopic; water absorbed ([1]; 90% relative humidity): 0.4%; solid form after extended exposure to water [2]: remains as the same form

**Q.** What does the source list for `CCOP(=O)(COc1ccc(CC(NC(=O)OC2CO[C@H]3OCC[C@@H]23)[C@H](O)CN(CC(C)C)S(=O)(=O)c2ccc(OC)cc2)cc1)OCC` (stereo partly drawn) [Compound I amorphous material]?
**A.** Weight gain after 5 days ([3]; 75% Relative Humidity): 0.6%; Weight gain after 11 days ([3]; 75% Relative Humidity): 1.0%; Weight gain after 5 days ([3]; 97% Relative Humidity): 3.8%
